Assay results taken from ChEMBL document CHEMBL1201862, “PubChem BioAssay data set” (2004).
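Cultured in 96-well plates, cells were exposed to test compound for 48 hours across five concentrations. Here, GI50 denotes the concentration required for 50% inhibition of growth.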 Activity calls are given as the source filed them. Rule as the data show it: active = GI50 up to about 1.1 µM and inactive = higher.

Assays:
Experiment in all cases: NCI anticancer screen, dose series, 48 h
[1] = test system: RPMI-8226
[2] = test system: A549
[3] = test system: SK-MEL-28
[4] = test system: PC-3
[5] = test system: HCT-15
[6] = test system: RXF 393
[7] = test system: HT-29
[8] = test system: DLD-1
[9] = test system: Hs-578T
[10] = test system: OVCAR-5
[11] = test system: NCI/ADR-RES
[12] = test system: SNB-19
[13] = test system: Malme-3M
[14] = test system: HCT-116
[15] = test system: M14
[16] = test system: DMS-114
[17] = test system: UACC-257
[18] = test system: ACHN
[19] = test system: SW-620
[20] = test system: UO-31
[21] = test system: KM12
[22] = test system: RXF 631
[23] = test system: OVCAR-8
[24] = test system: OVCAR-3
[25] = test system: HCC 2998
[26] = test system: IGROV-1
[27] = test system: HL-60
[28] = test system: MDA-MB-231
[29] = test system: UACC-62
[30] = test system: M19-MEL
[31] = test system: 786-0
[32] = test system: OVCAR-4
[33] = test system: MCF7
[34] = test system: SF-539
[35] = test system: SR
[36] = test system: SK-OV-3
[37] = test system: XF498
[38] = test system: U-251
[39] = test system: KM-20L2
[40] = test system: NCI-H226
[41] = test system: CCRF-CEM
[42] = test system: BT-549
[43] = test system: TK-10
[44] = test system: HOP-62
[45] = test system: EKVX
[46] = test system: NCI-H522
[47] = test system: SNB-75
[48] = test system: NCI-H460
[49] = test system: HOP-18
[50] = test system: CAKI-1
[51] = test system: K562
[52] = test system: MDA-MB-435
[53] = test system: NCI-H23
[54] = test system: SK-MEL-2
[55] = test system: A498
[56] = test system: LXFL 529
[57] = test system: LOX IMVI
[58] = test system: DMS-273
[59] = test system: T47D
[60] = test system: HOP-92
[61] = test system: MDA-N
[62] = test system: SNB-78
[63] = test system: SN12C
[64] = test system: SF-295
[65] = test system: MOLT-4
[66] = test system: COLO 205
[67] = test system: SF-268
[68] = test system: SK-MEL-5
[69] = test system: DU-145

Which results are given for `CCCCCCCCCCNC1CC(OC2CC(O)(C(O)CO)Cc3c(O)c4c(c(O)c32)C(=O)c2c(OC)cccc2C4=O)OC(C)C1O` (stereo not drawn)?
GI50 [1]: 839 nM (active); GI50 [2]: 1580 nM (inactive); GI50 [3]: 1760 nM (inactive); GI50 [4]: 1470 nM (inactive); GI50 [5]: 1560 nM; GI50 [6]: 1260 nM (inactive); GI50 [7]: 1330 nM (inactive); GI50 [8]: 1130 nM (inactive); GI50 [9]: 1670 nM (inactive); GI50 [10]: 1800 nM (inactive); GI50 [11]: 1880 nM (inactive); GI50 [12]: 1880 nM (inactive); GI50 [13]: 1940 nM (inactive); GI50 [14]: 692 nM (active); GI50 [15]: 1690 nM (inactive); GI50 [16]: 1460 nM (inactive); GI50 [17]: 1720 nM (inactive); GI50 [18]: 1730 nM (inactive); GI50 [19]: 791 nM (active); GI50 [20]: 1770 nM (inactive); GI50 [21]: 1500 nM (inactive); GI50 [22]: 1530 nM (inactive); GI50 [23]: 1550 nM (inactive); GI50 [24]: 1690 nM (inactive); GI50 [25]: 1330 nM (inactive); GI50 [26]: 1740 nM (inactive); GI50 [27]: 434 nM (active); GI50 [28]: 1360 nM (inactive); GI50 [29]: 1790 nM (inactive); GI50 [30]: 1650 nM (inactive); GI50 [31]: 1840 nM (inactive); GI50 [32]: 1530 nM (inactive); GI50 [33]: 1010 nM (active); GI50 [34]: 1770 nM (inactive); GI50 [35]: 408 nM (active); GI50 [36]: 1600 nM (inactive); GI50 [37]: 1910 nM (inactive); GI50 [38]: 986 nM (active); GI50 [39]: 1690 nM (inactive); GI50 [40]: 1790 nM (inactive); GI50 [41]: 388 nM (active); GI50 [42]: 1700 nM (inactive); GI50 [43]: 4440 nM (inactive); GI50 [44]: 1660 nM (inactive); GI50 [45]: 1780 nM (inactive); GI50 [46]: 1760 nM (inactive); GI50 [47]: 1620 nM (inactive); GI50 [48]: 601 nM (active); GI50 [49]: 1870 nM (inactive); GI50 [50]: 1680 nM (inactive); GI50 [51]: 324 nM (active); GI50 [52]: 1770 nM (inactive); GI50 [53]: 2630 nM (inactive); GI50 [54]: 1400 nM (inactive); GI50 [55]: 1500 nM (inactive); GI50 [56]: 731 nM (active); GI50 [57]: 641 nM (active); GI50 [58]: 1790 nM (inactive); GI50 [59]: 1860 nM (inactive); GI50 [60]: 1470 nM (inactive); GI50 [61]: 1500 nM (inactive); GI50 [62]: 1840 nM (inactive); GI50 [63]: 1650 nM (inactive); GI50 [64]: 1900 nM (inactive); GI50 [65]: 189 nM (active); GI50 [66]: 1660 nM (inactive); GI50 [67]: 1920 nM (inactive); GI50 [68]: 1740 nM (inactive); GI50 [69]: 1790 nM (inactive)

`CS(=O)(=O)CSCSSCS(C)(=O)=O` was tested. Which GI50 [1] did it give?
Its GI50 is 20400 nM (inactive).

What about the GI50 [2] of the same compound?
Its GI50 is > 100000 nM (inactive).

And the GI50 [3]?
The GI50 was 24600 nM (inactive).

And the GI50 [5]?
Its GI50 is 28000 nM.

And the GI50 [6]?
Its GI50 is 17100 nM (inactive).

What about the GI50 [7] of the same compound?
The GI50 was > 59700 nM (inactive).

And the GI50 [8]?
Its GI50 is 30000 nM (inactive).

What about the GI50 [10] of the same compound?
Its GI50 is 43200 nM (inactive).

What about the GI50 [12] of the same compound?
Its GI50 is 74300 nM (inactive).

And the GI50 [13]?
Its GI50 is 38700 nM (inactive).

What about the GI50 [14] of the same compound?
The GI50 was 34400 nM (inactive).

What about the GI50 [15] of the same compound?
The GI50 was 19200 nM (inactive).

What about the GI50 [16] of the same compound?
The GI50 was 27300 nM (inactive).

What about the GI50 [17] of the same compound?
The GI50 was 28400 nM (inactive).

What about the GI50 [18] of the same compound?
The GI50 was 40000 nM (inactive).

What about the GI50 [19] of the same compound?
The GI50 was 16800 nM (inactive).

And the GI50 [20]?
Its GI50 is 32100 nM (inactive).

What about the GI50 [21] of the same compound?
Its GI50 is 44200 nM (inactive).

And the GI50 [22]?
Its GI50 is 32000 nM (inactive).

And the GI50 [23]?
The GI50 was 30200 nM (inactive).

What about the GI50 [24] of the same compound?
The GI50 was 47100 nM (inactive).

And the GI50 [25]?
Its GI50 is > 100000 nM (inactive).

What about the GI50 [26] of the same compound?
Its GI50 is 51800 nM (inactive).

What about the GI50 [27] of the same compound?
Its GI50 is 21100 nM (inactive).

What about the GI50 [29] of the same compound?
Its GI50 is 20700 nM (inactive).

What about the GI50 [30] of the same compound?
Its GI50 is > 57900 nM (inactive).

And the GI50 [31]?
Its GI50 is 20100 nM (inactive).

What about the GI50 [32] of the same compound?
Its GI50 is 33000 nM (inactive).

What about the GI50 [34] of the same compound?
Its GI50 is 22000 nM (inactive).

What about the GI50 [35] of the same compound?
Its GI50 is 16500 nM (inactive).

And the GI50 [36]?
The GI50 was > 100000 nM (inactive).

And the GI50 [37]?
Its GI50 is 32000 nM (inactive).

What about the GI50 [38] of the same compound?
Its GI50 is 37100 nM (inactive).

And the GI50 [39]?
Its GI50 is 55800 nM (inactive).

What about the GI50 [40] of the same compound?
The GI50 was > 100000 nM (inactive).

And the GI50 [41]?
Its GI50 is 22200 nM (inactive).

And the GI50 [43]?
The GI50 was > 90600 nM (inactive).

And the GI50 [44]?
The GI50 was 51800 nM (inactive).

And the GI50 [45]?
The GI50 was > 100000 nM (inactive).

What about the GI50 [46] of the same compound?
Its GI50 is 14900 nM (inactive).

What about the GI50 [47] of the same compound?
Its GI50 is > 63400 nM (inactive).

And the GI50 [48]?
Its GI50 is 26200 nM (inactive).

What about the GI50 [49] of the same compound?
Its GI50 is 37600 nM (inactive).

And the GI50 [50]?
The GI50 was 25400 nM (inactive).

And the GI50 [51]?
Its GI50 is 23800 nM (inactive).

What about the GI50 [53] of the same compound?
The GI50 was 35500 nM (inactive).

And the GI50 [54]?
Its GI50 is 21200 nM (inactive).

What about the GI50 [55] of the same compound?
The GI50 was 88900 nM (inactive).

What about the GI50 [56] of the same compound?
The GI50 was 18100 nM (inactive).

What about the GI50 [57] of the same compound?
Its GI50 is 13600 nM (inactive).

And the GI50 [58]?
Its GI50 is 25900 nM (inactive).

What about the GI50 [60] of the same compound?
The GI50 was 27700 nM (inactive).

What about the GI50 [62] of the same compound?
The GI50 was 49400 nM (inactive).

And the GI50 [63]?
The GI50 was 29200 nM (inactive).

What about the GI50 [64] of the same compound?
The GI50 was 18200 nM (inactive).

And the GI50 [65]?
The GI50 was 25500 nM (inactive).

What about the GI50 [66] of the same compound?
The GI50 was 18200 nM (inactive).

And the GI50 [67]?
Its GI50 is 26200 nM (inactive).

And the GI50 [68]?
The GI50 was 40800 nM (inactive).
